Measured values taken from patent US20090016991A1, “Rxr Antagonist Treatment Against Multiple Sclerosis” (priority 2004, published 2009).
Entries after “also recorded” stand apart in the source; their conditions may differ.

Assays:
[1] = system: MMP-9; experiment: MMP-9 protein expression in human PBMC (zymography and ELISA); assay type: cell-based; conditions: for MMP-9 Inhibition of expression: vs vehicle control (0%)
Text: For details on the method see: (A) Effect of RXR antagonists on expression of MMP-9 protein in human peripheral blood mononuclear cells (PBMC) in vitro, Leppert D et al, J Immunol 1995, 154:4379-4389; (B) Leppert D et al, Ann Neurol 1996, 40: 846-852; (C) Leppert D et al, Brain 1998, 121, 2327-2334; (D) Lindberg R et al, Brain 2001, 124: 1743-1753; (E) Gilli F et al, Brain 2004, 127: 1-10, which are incorporated by reference herein, especially with regard to the method.
Method: Fresh human peripheral blood mononuclear cells (PBMC) were prepared and expanded by stimulation with PHA as described in Leppert D et al, Ann Neurol 1996; 40: 846-852. 1×10^6 cells were pretreated with the RXR antagonist compound A in concentrations of 10^−6 M, 10^−7 M and 10^−8 M for 18 hours. Vehicle was used as control.
In two different experiments, after pretreatment with compound A, PBMCs were stimulated for 24 hours with Interleukin-2 (IL-2) 50 U/ml in one group, or not stimulated with IL-2 in another group.
The effect of the mentioned concentrations of compound A was compared with vehicle controls in the IL-2 stimulated and in the non IL-2 stimulated cultures of PBMC. The expression of MMP-9 protein was determined by analysis with zymography and ELISA, see especially references (A) under “Zymographic analysis of conditioned medium (CM)” and (C) under “ELISA (enzyme linked immunosorbent assay) for MMP-9” mentioned above, respectively.

[2] = system: synovial fibroblasts; experiment: In vitro cartilage degradation by RA synovial fibroblasts (sGAG release); assay type: cell-based, human; conditions: for Release of sGAG: 14 days
Method: (§1) Methods: The effect of RXR antagonists on the activity of synovial fibroblasts, dependent on their state of activation, i.e. modified by a concomitant stimulation by the inflammatory cytokine Interleukin-1β (IL-1β), was determined. Furthermore, it was determined whether this was accompanied by a modulation in the accumulation of the mRNA encoding catabolic enzyme matrix metalloproteinase-1 (MMP-1), responsible for degradation of human cartilage and consequently joint destruction in man. Adherent synovial fluid cells taken from a patient with RA were used after 5 passages in an in vitro assay for cartilage destruction. The cells incubated in flasks coated with 0.1% (0.1 g/100 ml) human cartilage powder were fixed using Matrigel® (BD Biosciences, Becton, Dickinson & Co., Boston, Mass., USA). The release of sulphated glycosaminoglycan (sGAG) into the culture medium was monitored by a commercial colorimetric test according to a method described by S. Björnsson, see Anal. Biochem. 256, 229-237 (1998) using an alcian blue dot plot analysis, and the accumulation of mRNA encoding MMP-1 was quantified by real time PCR (TaqMan® (Roche Diagnostics, Basle, Switzerland)).
The retinoid agonists all-trans retinoic acid and 9-cis retinoic acid, both physiological metabolites of vitamin A, as well as the RXR antagonist compound A, diluted first in ethanol, and then diluted with vehicle or medium to the desired dose/concentration were tested in a time course (0-35 days for the in vitro assay, 0-48 hours for MMP-1 mRNA, see tables 7, 8 and 10) and dose-dependent (10^−7 to 10^−9 M, see tables 5, 6 and 9). This was conducted in the presence or absence of IL-1β (100 pg/ml).

[3] = system: MMP-1 mRNA; experiment: MMP-1 mRNA accumulation in synovial fibroblasts (real time PCR); assay type: cell-based, human
Method: as §1, with “Switzerland)). […] This was conducted in the presence or absence of IL-1β (100 pg/ml).” for “Switzerland)).”

[4] = absence of IL-1β, 10^−7 M, vehicle control 48
[5] = absence of IL-1β, 10^−8 M, vehicle control 48
[6] = absence of IL-1β, 10^−8 M, day 7, control 23
[7] = absence of IL-1β, 10^−8 M, day 14, control 48
[8] = absence of IL-1β, 10^−8 M, day 21, control 84
[9] = absence of IL-1β, 10^−8 M, day 28, control 112
[10] = absence of IL-1β, 10^−8 M, day 35, control 117
[11] = absence of IL-1β, 10^−9 M, vehicle control 48
[12] = presence of 100 pg/ml IL-1β, 10^−7 M, vehicle control 173
[13] = presence of 100 pg/ml IL-1β, 10^−8 M, vehicle control 173
[14] = presence of 100 pg/ml IL-1β, 10^−8 M, day 7, control 86
[15] = presence of 100 pg/ml IL-1β, 10^−8 M, day 14, control 173
[16] = presence of 100 pg/ml IL-1β, 10^−8 M, day 21, control 212
[17] = presence of 100 pg/ml IL-1β, 10^−8 M, day 28, control 249
[18] = presence of 100 pg/ml IL-1β, 10^−8 M, day 35, control 271
[19] = presence of 100 pg/ml IL-1β, 10^−9 M, vehicle control 173
[20] = 10^−7 M, after 24 hours, vehicle control 1
[21] = 10^−8 M, 12 hours, control 1.13
[22] = 10^−8 M, 48 hours, control 1.09
[23] = 10^−8 M, after 24 hours, vehicle control 1
[24] = 10^−9 M, after 24 hours, vehicle control 1

Row | SMILES | Release of sGAG [2, 4] | Release of sGAG [2, 5] | Cumulative sGAG release [2, 6] | Cumulative sGAG release [2, 7] | Cumulative sGAG release [2, 8] | Cumulative sGAG release [2, 9] | Cumulative sGAG release [2, 10] | Release of sGAG [2, 11] | Effect on cartilage destruction in vitro (basal activity of synovial fibroblasts) ([2]; absence of IL-1β, in words) | Release of sGAG [2, 12] | Release of sGAG [2, 13] | Cumulative sGAG release [2, 14] | Cumulative sGAG release [2, 15] | Cumulative sGAG release [2, 16] | Cumulative sGAG release [2, 17] | Cumulative sGAG release [2, 18] | Release of sGAG [2, 19] | MMP-1 mRNA (fold increase of baseline value) [3, 20] | MMP-1 mRNA (fold increase of baseline value) ([3]; 10^−8 M, 0 hours) | MMP-1 mRNA (fold increase of baseline value) ([3]; 10^−8 M, 2 hours) | other results
1 | CCCCOc1c(\C(C)=C/C=C/C(C)=C/C(=O)O)cc(C(C)(C)C)cc1C(C)(C)C [compound A, (2E,4E,6Z)-7-[2-butoxy-3,5-bis(1,1-dimethylethyl)phenyl]-3-methyl-2,4,6-octatrienoic acid] | 39 µg/mL | 57 µg/mL | 44 µg/mL | 57 µg/mL | 57 µg/mL | 39 µg/mL | 34 µg/mL | 46 µg/mL | no effect | 41 µg/mL | 89 µg/mL | 67 µg/mL | 89 µg/mL | 89 µg/mL | 173 µg/mL | 56 µg/mL | 144 µg/mL | 0.68 relative units | 1 relative units | 1.13 relative units | Effect on production, release and/or activity (expression) of MMP-9 ([1]; PBMC, IL-2 stimulated and not stimulated, ELISA and zymography, in words): very strong suppressive effect; also recorded: marked suppressive or inhibitory effect; MMP-9 Protein (total protein in the supernatant) ([1]; PBMCs not stimulated with IL-2, 10^−6 M, 18 h pretreatment): 33 ng/mL; MMP-9 Inhibition of expression ([1]; PBMCs not stimulated with IL-2, 10^−6 M): 53%; MMP-9 Protein (total protein in the supernatant) ([1]; PBMCs not stimulated with IL-2, 10^−7 M, 18 h pretreatment): 43 ng/mL; MMP-9 Inhibition of expression ([1]; PBMCs not stimulated with IL-2, 10^−7 M): 39%; MMP-9 Protein (total protein in the supernatant) ([1]; PBMCs not stimulated with IL-2, 10^−8 M, 18 h pretreatment): 51 ng/mL; MMP-9 Inhibition of expression ([1]; PBMCs not stimulated with IL-2, 10^−8 M): 28%; MMP-9 Protein (total protein in the supernatant) ([1]; PBMCs stimulated with IL-2 50 U/ml 24 h, 10^−6 M): 29 ng/mL; MMP-9 Protein (total protein in the supernatant) ([1]; PBMCs stimulated with IL-2 50 U/ml 24 h, 10^−7 M): 41 ng/mL; MMP-9 Protein (total protein in the supernatant) ([1]; PBMCs stimulated with IL-2 50 U/ml 24 h, 10^−8 M): 40 ng/mL; MMP-9 Inhibition of expression ([1]; PBMCs stimulated with IL-2, 10^−6 M): 52%; MMP-9 Inhibition of expression ([1]; PBMCs stimulated with IL-2, 10^−7 M): 33%; MMP-9 Inhibition of expression ([1]; PBMCs stimulated with IL-2, 10^−8 M): 34%; Effect on IL-1β dependent cartilage destruction (sGAG) ([2]; presence of IL-1β, in words): markedly inhibited; MMP-1 mRNA (fold increase of baseline value) ([3]; 10^−8 M, 6 hours): 0.81 relative units; MMP-1 mRNA (fold increase of baseline value) [3, 21]: 1.12 relative units; MMP-1 mRNA (fold increase of baseline value) ([3]; 10^−8 M, 24 hours): 0.87 relative units; MMP-1 mRNA (fold increase of baseline value) [3, 22]: 0.83 relative units; MMP-1 mRNA (fold increase of baseline value) [3, 23]: 1.12 relative units; MMP-1 mRNA (fold increase of baseline value) [3, 24]: 1.05 relative units
2 | CC1=C(/C=C/C(C)=C\C=C\C(C)=C\C(=O)O)C(C)(C)CCC1 [9-cis RA, 9-cis retinoic acid, reference compound] | 189 µg/mL | 107 µg/mL | 44 µg/mL | 107 µg/mL | 206 µg/mL | 253 µg/mL | 292 µg/mL | 64 µg/mL | increased cartilage destruction in vitro in a dose-dependent manner | 221 µg/mL | 189 µg/mL | 68 µg/mL | 189 µg/mL | 330 µg/mL | 407 µg/mL | 441 µg/mL | 204 µg/mL | 2.60 relative units | 1 relative units | 0.98 relative units | Effect on cartilage destruction in vitro, time course ([2]; presence and absence of IL-1β, in words): markedly increased cartilage destruction; MMP-1 mRNA (fold increase of baseline value) ([3]; 10^−8 M, 6 hours): 1.31 relative units; MMP-1 mRNA (fold increase of baseline value) [3, 21]: 3.39 relative units; MMP-1 mRNA (fold increase of baseline value) ([3]; 10^−8 M, 24 hours): 3.79 relative units; MMP-1 mRNA (fold increase of baseline value) [3, 22]: 1.47 relative units; MMP-1 mRNA (fold increase of baseline value) [3, 23]: 3.39 relative units; MMP-1 mRNA (fold increase of baseline value) [3, 24]: 1.54 relative units
